Legend:
[1] = test system: endocrine progenitor cells; assay: BC step 1 screen: flow cytometry of INS, NKX6.1 and GCG expression; type: cell-based, human; conditions: added on top of BC step 1 medium comprising DZNEP, Alk5i, Heparin, Nicotinamide; FIG. 3
Procedure: As a first step towards generating fully functional mature beta cells, we screened for factors to generate maximal numbers of immature INS+/NKX6.1+ cells (BC step 1 screen). […]
Compounds were screened for their ability to induce INS+, NKX6.1+ double positive immature BCs and few GCG positive cells within a 7 days period. Media change was performed daily. Cells were fixed at day 4 and day 7 of BC step 1 and analysed for INS NKX6.1 and GCG expression using flow cytometry (see Table 1 and FIG. 2). Briefly, differentiated endocrine cells were dispersed into single-cell suspension by incubation with TrypLE Express at 37° C. for 10 min. Differentiated endocrine cells were resuspended in 4% paraformaldehyde, washed in PBS followed by incubation with primary antibodies overnight and then secondary antibodies for 1 hour. The differentiated hPSCs co-expressed C-peptide+/NKX6.1+ with few cells expressing the α-cell hormone glucagon (FIG. 2). When quantified by flow cytometry, 48% of the cells co-expressed C-peptide+/NKX6-1 (FIG. 2), more than previously reported with stem cell-derived beta cells (Pagliuca et al., Cell. 2014 Oct. 9; 159(2):428-39. doi: 10.1016/j.cell.2014.09.040; Rezania et al., Nat Biotechnol. 2014 November; 32(11):1121-33. doi: 10.1038/nbt.3033. Epub 2014 Sep. 11).
Hits compounds of Table 2 have been identified in a primary screen.

[2] = test system: stem cell-derived endocrine progenitor cells; assay: BC step 1 medium with or without Nicotinamide: BC FACS phenotype; type: cell-based, human; conditions: BC step 1 medium with or without 10 mM Nicotinamide, 4 days, then 2 days BC step 2; FIG. 16
Procedure: To evaluate the effect of Nicotinamide, stem cell-derived endocrine progenitor cells were differentiated in BC step 1 medium with or without Nicotinamide, followed by a culturing step in BC step 2 medium.
Cell were differentiated to endocrine progenitors and then subjected to BC step 1 medium for 4 days (BC step 1 medium comprises RPMI1640 with Glutamax, 0.1% Pen/Strep, 12% KOSR, 10 μM Alk5i, 1 μM T3, 1 μM DZNEP, 10 μg/ml heparin, 25 μM DAPT, and with or without 10 mM Nicotinamide).
Cells were then subjected to BC step 2 cell culture medium for 2 days before analysing by FACS. BC step 2 medium consisted of: RPMI1640 with Glutamax, 0.1% Pen/Strep, 12% KOSR, 50 μM GABA, 10 μM Alk5i, 1 μM T3 and 10 μM DZNEP.

hPSC-derived beta cells = assay: Perfusion assay of dynamic human insulin secretion in vitro; type: cell-based
Procedure: Mature beta cells are functionally defined by their rapid response to elevate glucose. Secretion of human insulin by beta cells at the end of BC step 2 method with BC step 2 medium comprising 50 μM GABA, 10 μM Alk5i, 1 μM T3 was measured as repeated responses to 20 mM glucose±1 μM exendin-4 a GLP1-receptor agonist or ±the anti-diabetic sulfonylurea compound Tolbutamide within a perfusion system.
Briefly, groups of 300 hand-picked, clusters of hESC- or hiPSC-derived cell clusters were suspended with beads (Bio-Rad #150-4124) in plastic chambers of Biorep PERFUSION SYSTEM (Biorep #PERI-4.2). Under temperature and CO2-controlled conditions, the cells were perfused at 0.5 ml min−1 with a Krebs buffer. Prior to sample collection, cells were equilibrated under basal (2 mM glucose) conditions for 1 h. During perfusion cells were exposed to repeated challenges with 20 mM glucose±1 μM exendin-4 or ±100 μM Tolbutamide. At the end of perfusion, cells were exposed to cAMP-elevating agents (dbcAMP) on top of 20 mM glucose. Insulin secretion was measured by human insulin ELISA (Mercodia).

Compound: C[C@H](NC(=O)Cc1cc(F)cc(F)c1)C(=O)NC(C(=O)OC(C)(C)C)c1ccccc1 (some centres unmarked) [DAPT]
- number of INS+/NKX6.1+ cells [1]: highest number of INS+/NKX6.1+ cells

Compound: NC(=O)c1cccnc1 [Nicotinamide]
- BC FACS phenotype [2]: not affected

Compound: CCCCNC(=O)NS(=O)(=O)c1ccc(C)cc1 [tolbutamide]
- effect on insulin secretion (hPSC-derived beta cells; day 7 of BC step 2, 20 mM glucose ± 100 μM Tolbutamide): significant additive effect

Compound: Dibutyryl-cAMP [dbcAMP]
- number of INS+/NKX6.1+ cells [1]: highest number of INS+/NKX6.1+ cells

Compound: exendin-4
- level of insulin secretion in the hPSC-derived beta cells (hPSC-derived beta cells; 20 mM glucose ± 1 μM exendin-4): increased the level of insulin secretion

From patent US20210230554A1, “GENERATION OF FUNCTIONAL BETA CELLS FROM HUMAN PLURIPOTENT STEM CELL-DERIVED ENDOCRINE PROGENITORS” (Novo Nordisk A/S, priority 2018, published 2021)
